Measurements: ChEMBL document CHEMBL4613255, “Tridiscorhabdin and Didiscorhabdin, the First Discorhabdin Oligomers Linked with a Direct C-N Bridge from the Sponge Latrunculia biformis Collected from the Deep Sea in Antarctica” (J Nat Prod, 2020)

What was measured:
[1] = system: HCT-116; test: Cytotoxicity against human HCT116 cells assessed as reduction in cell viability after 24 hrs by fluorescence based assay; type: functional; details: HCT-116, 24 h
[2] = system: HaCaT; test: Cytotoxicity against human HaCaT cells assessed as reduction in cell viability after 24 hrs by fluorescence based assay

Compound	IC50 [1] [nM]	IC50 [2] [nM]
O=C1C2=C3C4=[N+](CCc5c[nH]c1c54)[C@@H]1C(=O)C=C4S[C@H](C[C@]43[C@H]1O)N2	940	–
O=C1C=C(S[C@@H]2[C@H]3C(=O)C=C4S[C@H]5C[C@@]42C2=C(N5)C(=O)c4[nH]cc5c4C2=[N+]3CC5)[C@@]2(C=CNC3=C2c2nccc4cn([C@H]5[C@H]6C(=O)C=C7S[C@H]8C[C@]75C5=C(N8)C(=O)c7[nH]cc8c7C5=[N+]6CC8)c(c24)C3=O)C=C1Br	310	920
